Common to all, as to type: biochemical
One assay concerns the target CLK1 (Homo sapiens (Human), UniProt P49759). As to the kind of experiment: Inhibition of CLK1 kinase activity evaluated at Nanosyn (ADP-Glo). The settings on record: ADP-Glo luminescence. In short, it runs like this: (§1)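 ADP-Glo luminescence (40 min depletion, 10 min detection) quantifies ADP from ATP-initiated phosphorylation of substrate by each CLK isoform in HEPES pH 7.5 buffer, 1% DMSO, assay-specific incubation. %-inhibition calculated against uninhibited and enzyme-free controls.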
A general note: In ADP-Glo the light output rises with the ADP produced.

The target in the next assay is CLK4 (Homo sapiens (Human), UniProt Q9HAZ1). Briefly: Inhibition of CLK4 kinase activity evaluated at Nanosyn (ADP-Glo). The settings on record: ADP-Glo luminescence. In short, it runs like this:
as §1

For another assay, the target named is CLK2 (Homo sapiens (Human), UniProt P49760). Briefly: Inhibition of CLK2 kinase activity evaluated at Nanosyn (ADP-Glo). To be noted: ADP-Glo luminescence. In short, it runs like this:
as §1

In a further assay the target is CLK3 (Homo sapiens (Human), UniProt P49761). As to the kind of experiment: Inhibition of CLK3 kinase activity evaluated at Nanosyn (ADP-Glo). To be noted: ADP-Glo luminescence. In short, it runs like this: as §1
Sequence of CLK3 (P49761 whole entry): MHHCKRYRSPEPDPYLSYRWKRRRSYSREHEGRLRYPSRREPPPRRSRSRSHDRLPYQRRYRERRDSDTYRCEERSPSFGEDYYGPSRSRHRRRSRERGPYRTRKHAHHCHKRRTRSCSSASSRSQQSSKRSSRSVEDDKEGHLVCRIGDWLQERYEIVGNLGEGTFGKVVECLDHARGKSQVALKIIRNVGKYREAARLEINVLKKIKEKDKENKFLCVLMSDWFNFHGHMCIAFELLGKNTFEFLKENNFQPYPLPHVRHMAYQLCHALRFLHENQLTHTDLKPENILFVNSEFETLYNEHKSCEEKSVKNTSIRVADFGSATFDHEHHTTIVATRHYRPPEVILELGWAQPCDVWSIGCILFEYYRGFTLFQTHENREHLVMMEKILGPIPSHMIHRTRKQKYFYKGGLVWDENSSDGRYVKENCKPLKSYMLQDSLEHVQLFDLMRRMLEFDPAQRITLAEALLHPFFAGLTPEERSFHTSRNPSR
Another assay concerns the target ALK (Homo sapiens (Human), UniProt Q9UM73). As to the kind of experiment: HotSpot radiometric kinase assay, inhibition of ALK kinase activity. To be noted: 10 μM ATP. The procedure:
Briefly, specific kinase/substrate pairs along with required cofactors were prepared in reaction buffer; 20 mM Hepes pH 7.5, 10 mM […], 1 mM EGTA, 0.02% Brij35, 0.02 mg/ml BSA, 0.1 mM Na3VO4, 2 mM DTT, 1% DMSO. Compounds were delivered into the reaction, followed […] later by addition of a mixture of ATP (Sigma, St. Louis MO) and ^33P ATP (Perkin Elmer, Waltham MA) to a final concentration of 10 μM. Reactions were carried out at room temperature for 120 min, followed by spotting of the reactions onto P81 ion exchange filter paper (Whatman Inc., Piscataway, NJ). Unbound phosphate was removed by extensive washing of filters in 0.75% phosphoric acid. […] IC50 values and curve fits were obtained using Prism (GraphPad Software).

A further assay has as its target EGFR (D770_N771insNPG) (Homo sapiens (Human), UniProt P00533, INS770NPG). As to the kind of experiment: HotSpot radiometric kinase assay, EGFR (D770_N771insNPG). To be noted: 10 μM ATP, read-out: EGFR (Δ770_N771insNPG) IC50. In short, it runs like this:
(§2)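 IC50 values come from curve fits of ^33P incorporation captured on P81 filters after acid washing. Kinase reactions ran 120 min at room temperature with 10 μM ATP, added about 20 min after compound. Buffer was Hepes pH 7.5 containing Mg, DTT and 1% DMSO.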

Assay [1] concerns the target EGFR L858R/T790M/C797S mutant (Homo sapiens (Human), UniProt P00533, C797S/L858R/T790M). Briefly: HotSpot radiometric kinase assay, EGFR L858R/T790M/C797S mutant. To be noted: 10 μM ATP. In short, it runs like this: as §2
The target in a further assay is EGFR L858R mutant (Homo sapiens (Human), UniProt P00533, L858R). Briefly: HotSpot radiometric kinase assay, EGFR L858R mutant. The settings on record: 10 μM ATP. In short, it runs like this:
as §2

For the next assay, the target named is EGFR L858R/T790M mutant (Homo sapiens (Human), UniProt P00533, L858R/T790M). Briefly: HotSpot radiometric kinase assay, EGFR L858R/T790M mutant. The settings on record: 10 μM ATP. In short, it runs like this: as §2
The target in the next assay is EGFR Δ746-750 mutant (Homo sapiens (Human), UniProt P00533, DEL746-750). As to the kind of experiment: HotSpot radiometric kinase assay, EGFR Δ746-750 mutant. To be noted: 10 μM ATP. In short, it runs like this: as §2
Sequence of EGFR Δ746-750 mutant (P00533 other isoform, or with tags, fused parts or gaps del 1-668/del 746-750 limits assumed): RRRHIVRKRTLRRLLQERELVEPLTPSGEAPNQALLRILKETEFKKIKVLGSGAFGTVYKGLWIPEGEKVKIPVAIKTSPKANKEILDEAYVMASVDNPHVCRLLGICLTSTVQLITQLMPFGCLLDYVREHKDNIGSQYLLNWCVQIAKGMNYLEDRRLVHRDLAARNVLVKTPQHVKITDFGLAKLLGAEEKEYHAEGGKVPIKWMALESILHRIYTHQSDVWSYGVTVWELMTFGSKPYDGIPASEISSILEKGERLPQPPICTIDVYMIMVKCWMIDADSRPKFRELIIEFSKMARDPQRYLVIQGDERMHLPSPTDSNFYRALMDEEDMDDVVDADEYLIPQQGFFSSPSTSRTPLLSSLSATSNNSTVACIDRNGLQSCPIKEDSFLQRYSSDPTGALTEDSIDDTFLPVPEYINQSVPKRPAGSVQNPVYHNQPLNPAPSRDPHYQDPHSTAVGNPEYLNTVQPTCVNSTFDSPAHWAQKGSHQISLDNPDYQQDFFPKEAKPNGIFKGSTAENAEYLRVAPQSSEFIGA
In assay [2] the target is EGFR Δ746-750/C797S mutant (Homo sapiens (Human), UniProt P00533, C797S/DEL746-750). Briefly: HotSpot radiometric kinase assay, EGFR Δ746-750/C797S mutant. To be noted: 10 μM ATP. In short, it runs like this:
as §2

For another assay, the target named is EGFR WT (Homo sapiens (Human), UniProt P00533). Briefly: HotSpot radiometric kinase assay (Reaction Biology), EGFR WT. The settings on record: 10 μM ATP. In short, it runs like this:
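10 μM ATP (33P-labelled, final); 120 min RT; P81 filter capture, 0.75% phosphoric acid washes. Cpd preincubated ~20 min with enzyme/substrate, 20 mM Hepes pH 7.5, 10 mM MgCl2, 1% DMSO. IC50 by curve fit.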

Sequence of ALK (Q9UM73 19-1620): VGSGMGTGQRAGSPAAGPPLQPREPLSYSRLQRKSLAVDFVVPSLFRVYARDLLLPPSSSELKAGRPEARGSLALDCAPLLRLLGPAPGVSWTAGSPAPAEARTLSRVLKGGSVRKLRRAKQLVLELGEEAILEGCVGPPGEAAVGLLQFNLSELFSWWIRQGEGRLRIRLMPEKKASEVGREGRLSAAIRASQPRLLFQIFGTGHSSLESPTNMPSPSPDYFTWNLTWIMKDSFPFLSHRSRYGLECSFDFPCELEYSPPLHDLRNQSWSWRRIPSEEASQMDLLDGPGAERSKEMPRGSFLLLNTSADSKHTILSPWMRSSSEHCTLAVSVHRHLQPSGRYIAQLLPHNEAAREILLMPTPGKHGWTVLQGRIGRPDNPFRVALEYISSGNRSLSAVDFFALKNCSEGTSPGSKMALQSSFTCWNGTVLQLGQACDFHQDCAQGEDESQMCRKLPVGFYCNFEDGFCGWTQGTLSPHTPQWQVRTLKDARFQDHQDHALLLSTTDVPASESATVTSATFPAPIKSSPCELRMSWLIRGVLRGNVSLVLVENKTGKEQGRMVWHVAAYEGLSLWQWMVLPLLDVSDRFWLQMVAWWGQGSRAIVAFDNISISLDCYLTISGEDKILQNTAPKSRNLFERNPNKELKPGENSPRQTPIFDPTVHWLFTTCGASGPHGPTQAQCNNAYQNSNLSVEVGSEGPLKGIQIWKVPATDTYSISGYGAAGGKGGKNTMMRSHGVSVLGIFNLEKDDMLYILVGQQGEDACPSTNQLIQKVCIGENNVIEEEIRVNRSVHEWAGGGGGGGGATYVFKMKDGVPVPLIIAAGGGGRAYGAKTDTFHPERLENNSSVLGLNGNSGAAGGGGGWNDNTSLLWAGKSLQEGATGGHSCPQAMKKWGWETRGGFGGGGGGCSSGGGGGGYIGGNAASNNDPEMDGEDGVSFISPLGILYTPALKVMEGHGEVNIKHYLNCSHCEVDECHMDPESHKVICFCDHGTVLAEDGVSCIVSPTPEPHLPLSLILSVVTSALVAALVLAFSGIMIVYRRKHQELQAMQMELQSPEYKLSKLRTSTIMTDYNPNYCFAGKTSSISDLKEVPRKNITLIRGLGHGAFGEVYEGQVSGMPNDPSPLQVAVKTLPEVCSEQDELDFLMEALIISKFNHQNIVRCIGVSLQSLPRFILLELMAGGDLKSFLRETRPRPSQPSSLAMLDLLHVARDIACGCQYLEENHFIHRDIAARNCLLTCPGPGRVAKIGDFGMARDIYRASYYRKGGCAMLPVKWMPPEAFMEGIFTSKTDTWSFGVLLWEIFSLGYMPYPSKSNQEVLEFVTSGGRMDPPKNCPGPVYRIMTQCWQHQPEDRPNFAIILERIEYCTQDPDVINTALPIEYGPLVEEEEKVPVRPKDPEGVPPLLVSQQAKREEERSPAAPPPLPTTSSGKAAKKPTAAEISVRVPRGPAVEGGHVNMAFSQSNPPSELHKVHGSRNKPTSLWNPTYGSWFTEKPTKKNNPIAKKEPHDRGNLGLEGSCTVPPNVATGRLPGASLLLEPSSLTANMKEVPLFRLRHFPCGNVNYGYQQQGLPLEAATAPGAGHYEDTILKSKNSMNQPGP
Sequence of CLK4 (Q9HAZ1 whole entry): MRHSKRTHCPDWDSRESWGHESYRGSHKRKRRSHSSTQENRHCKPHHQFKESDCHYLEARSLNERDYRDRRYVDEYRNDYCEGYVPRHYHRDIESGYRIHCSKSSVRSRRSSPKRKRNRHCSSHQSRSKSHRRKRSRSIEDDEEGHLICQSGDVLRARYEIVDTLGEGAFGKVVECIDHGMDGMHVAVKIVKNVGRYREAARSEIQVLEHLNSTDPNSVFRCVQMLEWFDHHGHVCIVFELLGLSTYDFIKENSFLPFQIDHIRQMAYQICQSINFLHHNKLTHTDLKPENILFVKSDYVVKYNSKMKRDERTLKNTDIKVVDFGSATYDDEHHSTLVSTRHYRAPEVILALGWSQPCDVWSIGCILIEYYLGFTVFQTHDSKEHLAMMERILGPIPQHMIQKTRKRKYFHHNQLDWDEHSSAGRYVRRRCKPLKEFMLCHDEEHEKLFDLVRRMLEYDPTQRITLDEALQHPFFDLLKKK
Sequence of CLK2 (P49760 whole entry): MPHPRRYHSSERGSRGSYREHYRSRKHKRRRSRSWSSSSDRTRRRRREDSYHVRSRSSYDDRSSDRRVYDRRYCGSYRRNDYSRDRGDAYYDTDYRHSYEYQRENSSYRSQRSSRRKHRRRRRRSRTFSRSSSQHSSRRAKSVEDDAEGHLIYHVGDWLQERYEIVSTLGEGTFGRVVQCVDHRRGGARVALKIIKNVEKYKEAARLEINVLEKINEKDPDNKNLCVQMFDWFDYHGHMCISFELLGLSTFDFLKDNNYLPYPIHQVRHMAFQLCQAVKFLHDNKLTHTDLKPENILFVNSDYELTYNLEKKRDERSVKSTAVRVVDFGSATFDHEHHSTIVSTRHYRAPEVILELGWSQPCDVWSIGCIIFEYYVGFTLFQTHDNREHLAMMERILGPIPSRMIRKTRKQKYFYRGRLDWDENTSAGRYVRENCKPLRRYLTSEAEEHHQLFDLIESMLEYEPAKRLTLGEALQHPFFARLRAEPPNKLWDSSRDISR
Sequence of EGFR (D770_N771insNPG) (P00533 other isoform, or with tags, fused parts or gaps del 1-668/ins NPG behind 770 limits assumed): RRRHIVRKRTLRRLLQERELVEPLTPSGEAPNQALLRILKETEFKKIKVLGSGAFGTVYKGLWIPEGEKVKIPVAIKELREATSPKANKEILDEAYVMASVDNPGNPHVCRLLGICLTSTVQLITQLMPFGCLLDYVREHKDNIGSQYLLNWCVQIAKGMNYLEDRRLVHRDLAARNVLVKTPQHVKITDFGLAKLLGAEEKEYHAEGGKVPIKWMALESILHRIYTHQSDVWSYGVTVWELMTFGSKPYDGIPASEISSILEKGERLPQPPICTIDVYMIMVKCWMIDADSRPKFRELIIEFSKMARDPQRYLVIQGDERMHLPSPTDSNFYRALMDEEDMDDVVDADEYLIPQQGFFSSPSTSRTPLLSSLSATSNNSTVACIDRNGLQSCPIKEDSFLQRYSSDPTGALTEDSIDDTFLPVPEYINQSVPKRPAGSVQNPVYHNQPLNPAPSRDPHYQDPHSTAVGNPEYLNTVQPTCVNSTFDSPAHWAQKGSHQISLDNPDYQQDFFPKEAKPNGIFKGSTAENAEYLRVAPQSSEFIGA
Sequence of CLK1 (P49759 whole entry, canonical isoform): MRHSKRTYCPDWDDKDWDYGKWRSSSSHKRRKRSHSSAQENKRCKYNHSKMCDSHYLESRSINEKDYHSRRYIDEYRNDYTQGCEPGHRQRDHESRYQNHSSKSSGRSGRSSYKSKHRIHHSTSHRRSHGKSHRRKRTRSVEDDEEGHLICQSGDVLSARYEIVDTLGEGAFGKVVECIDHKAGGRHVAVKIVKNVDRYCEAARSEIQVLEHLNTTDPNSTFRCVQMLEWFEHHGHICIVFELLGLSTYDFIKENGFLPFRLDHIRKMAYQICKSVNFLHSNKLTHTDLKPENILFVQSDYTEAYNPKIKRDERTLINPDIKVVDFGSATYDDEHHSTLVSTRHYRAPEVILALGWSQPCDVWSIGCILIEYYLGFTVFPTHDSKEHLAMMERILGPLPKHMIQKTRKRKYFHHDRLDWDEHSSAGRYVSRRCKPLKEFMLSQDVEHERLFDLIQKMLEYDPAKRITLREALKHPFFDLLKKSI

On to `CCc1nn(C)c2c1/C=C/c1n[nH]c3ccc(cc13)-c1cnn(C)c1OCCOC2` [Example 300, (17E)-16-ethyl-8,14-dimethyl-2,8,10,11,13,14-hexahydro-3,5-etheno[1,4]dioxacyclopentadecino[10,11-c:15,14-c′:6,7-c″]tripyrazole], for which the IC50 was determined as 0.332 nM at CLK1; 0.225 nM at CLK4; 36.5 nM on CLK2; 0.862 nM at CLK3; 5.79 nM against ALK.
At ALK, `CCNC(=O)Cn1nc(C)c2c1COCCOc1c(cnn1C)-c1ccc3[nH]nc(c3c1)/C=C/2` [Example 301, 2-[(17E)-8,16-dimethyl-2,10,11,13-tetrahydro-3,5-etheno[1,4]dioxacyclopentadecino[10,11-c:15,14-c′:6,7-c′]tripyrazol-14(8H)-yl]-N-ethylacetamide] displayed an IC50 of 29 nM.
As to `CCc1nn(C)c2c1/C=C/c1n[nH]c3ccc(cc13)-c1cnn(C)c1O[C@@H](C)COC2` [Example 319, (10S,17E)-16-ethyl-8,10,14-trimethyl-2,8,10,11,13,14-hexahydro-3,5-etheno[1,4]dioxacyclopentadecino[10,11-c:15,14-c′:6,7-c″]tripyrazole], the IC50 at EGFR (D770_N771insNPG) was 1490 nM; in [1], 60.5 nM; against EGFR L858R mutant, 182 nM; on EGFR L858R/T790M mutant it was 24.7 nM; against EGFR Δ746-750 mutant it was 218 nM; in [2], 425 nM. The IC50 on ALK was 5.05 nM; against EGFR WT, 766 nM.
As to `CC(C)Oc1nn(CCO)c2c1/C=C/c1n[nH]c3ccc(cc13)-c1cnn(C)c1O[C@@H](C(F)F)CN(C)C2` (single isomer, unassigned) [Ex. 275], the IC50 at CLK1 worked out at 0.8 nM; on CLK4, 2.25 nM; on CLK2 it was 1.03 nM; on CLK3, 241 nM; at ALK, 1.46 nM.
The molecule `Cc1nn(C)c2c1/C=C/c1n[nH]c3ccc(cc13)-c1cnn(C)c1OCCOC2` [Example 303, (17E)-8,14,16-trimethyl-2,8,10,11,13,14-hexahydro-3,5-etheno[1,4]dioxacyclopentadecino[10,11-c:15,14-c′:6,7-c″]tripyrazole] had a half-maximal inhibitory concentration (IC50) against ALK of 27.5 nM.
Consider `CCOc1nn(CCO)c2c1/C=C/c1n[nH]c3cc(F)c(cc13)-c1cnn(C)c1O[C@@H](C)CN(CC)C2` [Example 288, 2-[(10S,17E)-16-ethoxy-12-ethyl-19-fluoro-8,10-dimethyl-2,8,10,11,12,13-hexahydro-14H-3,5-ethenotripyrazolo[3,4-f:3′,4′-j:4″,3″- n][1,4]oxazacyclopentadecin-14-yl]ethan-1-ol], for which the 50% inhibitory concentration (IC50) amounted to 0.32 nM at CLK1; 1.31 nM at CLK4; 0.24 nM at CLK2; 131 nM at CLK3; 1.82 nM against ALK.
The corresponding values for `CC(C)Oc1nn(CCO)c2c1/C=C/c1n[nH]c3cc(F)c(cc13)-c1cnn(C)c1O[C@@H](C)[C@H]1CCCN1C2` (single isomer, unassigned) [Example 256] are 1.38 nM, 4.05 nM, 1.35 nM, 94.5 nM and 2 nM.
For `CCN1Cc2c(c(OC)nn2[C@@H](C)CO)/C=C/c2n[nH]c3cc(F)c(cc23)-c2cnn(C)c2O[C@H](C)C1` [Example 289, (2S)-2-[(10R,17E)-12-ethyl-19-fluoro-16-methoxy-8,10-dimethyl-2,8,10,11,12,13-hexahydro-14H-3,5-ethenotripyrazolo[3,4-f:3′,4′-j:4″,3″-n][1,4]oxazacyclopentadecin-14-yl]propan-1-ol], it took 15.4 nM to reach half-maximal inhibition against ALK (IC50).
Consider `Cc1nn(C)c2c1/C=C/c1n[nH]c3ccc(cc13)-c1cnn(C)c1OCCCO2` [Ex. 8, (17E)-8,14,16-trimethyl-2,11,12,14-tetrahydro-8H,10H-3,5-etheno[1,5]dioxacyclopentadecino[10,11-c:15,14-c′:6,7-c″]tripyrazole], for which the IC50 on EGFR (D770_N771insNPG) stood at 377 nM; in assay [1], 24.3 nM; at EGFR L858R mutant, 104 nM; on EGFR Δ746-750 mutant it was 44.8 nM; against ALK, 2.09 nM; against EGFR WT, 884 nM.
Regarding `Cc1nn(C)c2c1/C=C/c1n[nH]c3ccc(cc13)-c1cnn(C)c1O[C@@H](C)CCO2` [Ex. 35, (10S,17E)-8,10,14,16-tetramethyl-2,11,12,14-tetrahydro-8H,10H-3,5-etheno[1,5]dioxacyclopentadecino[10,11-c:15,14-c′:6,7-c″ ]tripyrazole], the IC50 turned out to be 1040 nM on EGFR (D770_N771insNPG); 30.9 nM in assay [1]; 135 nM on EGFR L858R mutant; 101 nM against EGFR Δ746-750 mutant; 99.6 nM in assay [2]; 6.93 nM against ALK. The molecule further displayed an IC50 at EGFR WT of 584 nM.
`Cc1nn(CCO)c2c1/C=C/c1n[nH]c3ccc(cc13)-c1cnn(C)c1OCCCO2` [Ex. 22, 2-[(17E)-8,16-dimethyl-2,8,11,12-tetrahydro-10H,14H-3,5-etheno[1,5]dioxacyclopentadecino[10,11-c:15,14-c′:6,7-c″]tripyrazol-14-yl]ethan-1-ol]: the IC50 is 94.8 nM at EGFR (D770_N771insNPG); 0.54 nM in [1]; 4.49 nM against EGFR L858R mutant; 1.87 nM on EGFR L858R/T790M mutant; 3.84 nM against EGFR Δ746-750 mutant; 5.1 nM in [2]. Further, the IC50 amounted to 1.35 nM on ALK and 158 nM against EGFR WT.
Regarding `CC(C)c1noc2c1/C=C/c1n[nH]c3ccc(cc13)-c1cnn(C)c1O[C@@H](C)CN(C)C2` [Example 179, (10S,17E)-8,10,12-trimethyl-16-(propan-2-yl)-2,8,10,11,12,13-hexahydro-3,5-etheno[1,2]oxazolo[5,4-f]dipyrazolo[3,4-j:4′,3′-n][1,4]oxazacyclopentadecine], the IC50 was more than 1000 nM on EGFR (D770_N771insNPG); 507 nM in [1]; more than 1000 nM on EGFR L858R mutant; 1010 nM against EGFR L858R/T790M mutant; more than 1000 nM on EGFR Δ746-750 mutant; 2.75 nM at CLK1. Further, the 50% inhibitory concentration (IC50) on CLK4 was 1.66 nM; in assay [2] it was more than 1000 nM; on CLK2, 9.57 nM; on CLK3, 1000 nM; at EGFR WT, more than 1000 nM.
With `CC(C)Oc1nn(CCO)c2c1/C=C/c1n[nH]c3ccc(cc13)-c1cnn(C)c1O[C@@H](CO)CN(C)C2` [Example 258, 2-{(10R,17E)-10-(hydroxymethyl)-8,12-dimethyl-16-[(propan-2-yl)oxy]-2,8,10,11,12,13-hexahydro-14H-3,5-ethenotripyrazolo[3,4-f:3′,4′-j:4″,3″-n][1,4]oxazacyclopentadecin-14-yl}ethan-1-ol], the IC50 was 15.8 nM on EGFR (D770_N771insNPG); 2.17 nM in assay [1]; 1.56 nM against EGFR L858R mutant; 0.48 nM against EGFR L858R/T790M mutant; 1.22 nM at EGFR Δ746-750 mutant; 0.5 nM on CLK1. Also, the IC50 at CLK4 was determined as 1.04 nM; in assay [2] it was 1.26 nM; on CLK2 it was 0.23 nM; on CLK3 it was 17.2 nM; against EGFR WT it was 5.72 nM.
As for `C[C@H]1CN(C)Cc2c(c(OCC#N)nn2CCO)/C=C/c2n[nH]c3ccc(cc23)-c2cnn(C)c2O1` [Example 203, {[(10S,17E)-14-(2-hydroxyethyl)-8,10,12-trimethyl-2,10,11,12,13,14-hexahydro-8H-3,5-ethenotripyrazolo[3,4-f:3′,4′-j:4″,3″- n][1,4]oxazacyclopentadecin-16-yl]oxy}acetonitrile], the IC50 at EGFR (D770_N771insNPG) is 0.65 nM; in assay [1] it was 0.78 nM; against EGFR L858R mutant, 0.12 nM; on EGFR L858R/T790M mutant, 0.17 nM; on EGFR Δ746-750 mutant it was 0.11 nM; on CLK1, 0.72 nM. In addition, the IC50 on CLK4 worked out at 1.59 nM; in assay [2], 0.23 nM; on CLK2 it was 0.14 nM; at CLK3, 151 nM; on EGFR WT it was 0.23 nM.

A word on the IC50: it is the midpoint of a concentration-inhibition curve.
